Reference: patent US20220127281A1, “HETEROARYL COMPOUNDS THAT INHIBIT G12C MUTANT RAS PROTEINS” (AstraZeneca AB, priority 2017, published 2022)

Assays:
[1] = biological target: T1, GDP loaded biotinylated KRas^G12C protein (Homo sapiens, UniProt P01116, G12C); test: KRasG12C functional assay; assay type: biochemical; settings: HTRF FRET readout of SOS-mediated nucleotide exchange and GST-Raf RBD binding; samples incubated for 4 hrs; read-out: KRasG12C functional assay IC50 value
T1 construct: biotin (biotinylated); made in house
Protocol: KRasG12C Functional Assay
All enzyme and substrate solutions were prepared in assay buffer containing 20 mM HEPES (pH 7.5), 5 mM MgCl2, 150 mM NaCl, and 0.01% Tween 20. […] In a separate mix 20 nM GST-Raf Ras binding domain (GST-Raf RBD, purified in house) and 4 μg/ml anti-GST XL665 antibody (Cisbio) was prepared in assay buffer containing 50 mM Potassium Fluoride and 0.05 mg/ml BSA and equilibrated for 4 hours before adding 0.6 μM Guanosine 5′-[γ-thio]triphosphate (GTPγS, Sigma) and 0.08 μM SOS (purified in house). 5 μl of the GST-RAF RBD mix was then dispensed into each well of the assay plate. […] This is detected simultaneously via the specific binding interaction between active GTPγS KRas^G12C with GST-Raf RBD which brings the europium and XL665 into close proximity enabling an increased FRET signal to be detected on a Pherastar (BMG) plate reader equipped with the HTRF filter module. […] IC50 values were calculated from normalised dose-response response FRET data curve fitted in Genedata screener (Basel, Switzerland).

[2] = biological target: T1, GDP loaded biotinylated KRas^G12C protein; test: KRasG12C mass spectrometry adducting assay; assay type: binding; settings: test compound final concentration 10 μM, 4 μM KRasG12C, react for 4 hours
Protocol: KRasG12C Mass Spectrometry Adducting Assay
Enzyme solutions were prepared in assay buffer containing 20 mM HEPES (pH 7.5), 5 mM MgCl2, and 150 mM NaCl. […] The plate was sealed before reading on a Xevo G2 QTOF (Waters) and Acquity LC system (Waters). […] Blank samples were run in between each test sample.
Data was analysed in Mass Lynx software (Waters), the Total ion count (TIC) trace was used and the eluted protein peak data combined. Using the combined spectrum the data was deconvoluted using MaxEnt1 method. The peak area for apo-protein KRas^G12C (APO) and KRAS+relative cmpd mass (adduct) were measured, and a percentage adduct was calculated using the following calculation:
Percent adduct=100*(area of adduct peak/(sum of APO+adduct peaks)

T1 sequence (P01116 1-188 isoform P01116-2 G12C): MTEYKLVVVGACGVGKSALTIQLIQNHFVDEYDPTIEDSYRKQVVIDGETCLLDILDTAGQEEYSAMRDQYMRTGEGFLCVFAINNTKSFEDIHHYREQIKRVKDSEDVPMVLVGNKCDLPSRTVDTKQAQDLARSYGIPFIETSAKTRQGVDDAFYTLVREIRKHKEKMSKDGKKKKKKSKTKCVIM

| Compound | IC50 [1] | KRasG12C M.S. Binding Mean adduct % [2] |
| --- | --- | --- |
| C=CC(=O)N1CCN2c3ncnc4c(Cl)c(-c5c(C)ccc6[nH]ncc56)cc(c34)OC[C@@H]2C1 [Example 8, 1-[(8aS)-4-Chloro-5-(5-methyl-1H-indazol-4-yl)-8a,9,11,12-tetrahydropyrazino-[2′,1′:3,4][1,4]oxazepino[5,6,7-de]quinazolin-10 (8H)-yl]prop-2-en-1-one] | 0.324 µM | 81% |
| C=CC(=O)N1CCN2c3ncnc4cc(-c5c(O)cccc5F)c(Cl)c(c34)OC[C@@H]2C1 [Example 9, 1-[(8aS)-6-Chloro-5-(2-fluoro-6-hydroxyphenyl)-8a,9,11,12-tetrahydropyrazino-[2′,1′:3,4][1,4]oxazepino[5,6,7-de]quinazolin-10 (8H)-yl]prop-2-en-1-one] | 0.124 µM | 100% |
| CN(C)C/C=C/C(=O)N1CCN2c3ncnc4cc(-c5c(O)cccc5F)c(Cl)c(c34)OC[C@@H]2C1 [Example 12, (E)-1-((8aS)-6-Chloro-5-(2-fluoro-6-hydroxyphenyl)-8a,9,11,12-tetrahydropyrazino[2′,1′:3,4][1,4]oxazepino[5,6,7-de]quinazolin-10 (8H)-yl)-4-(dimethylamino)but-2-en-1-one] | 0.381 µM | 76% |
| C=CC(=O)N1CCN2c3ncnc4cc(-c5cccc6[nH]c(=O)[nH]c56)c(Cl)c(c34)OC[C@@H]2C1 [Example 13, 4-[(8aS)-10-Acryloyl-6-chloro-8,8a,9,10,11,12-hexahydropyrazino[2′,1′:3,4][1,4]-oxazepino[5,6,7-de]quinazolin-5-yl]-1,3-dihydro-2H-benzimidazol-2-one] | 2 µM | 64% |
| C=CC(=O)N1CCN2c3ncnc4cc(-c5c(C)cnc6[nH]ncc56)c(Cl)c(c34)OC[C@@H]2C1 [Example 14, 1-[(8aS)-6-Chloro-5-(5-methyl-1H-pyrazolo[3,4-b]pyridin-4-yl)-8a,9,11,12-tetrahydro-pyrazino[2′,1′:3,4][1,4]oxazepino[5,6,7-de]quinazolin-10 (8H)-yl]prop-2-en-1-one] | 2.54 µM | 53% |
| C=CC(=O)N1CCN2c3ncnc4cc(-c5ccc6oc(N)nc6c5)c(Cl)c(c34)OC[C@@H]2C1 [Example 21, 1-[(8aS)-5-(2-Amino-1,3-benzoxazol-5-yl)-6-chloro-8a,9,11,12-tetrahydropyrazino[2′,1′:3,4][1,4]-oxazepino[5,6,7-de]quinazolin-10(8H)-yl]prop-2-en-1-one] | 7.18 µM | 20% |
| C=CC(=O)N1CCN2c3ncnc4cc(-c5cccc6c5oc(=O)n6C)c(Cl)c(c34)OC[C@@H]2C1 [Example 22, 7-[(8aS)-10-Acryloyl-6-chloro-8,8a,9,10,11,12-hexahydropyrazino[2′,1′:3,4][1,4]oxazepino[5,6,7-de]quinazolin-5-yl]-3-methyl-1,3-benzoxazol-2(3H)-one] | 1.77 µM | 34% |
| C=CC(=O)N1CCN2c3ncnc4cc(-c5cccc(NC(C)=O)c5)c(Cl)c(c34)OC[C@@H]2C1 [Example 23, N-{3-[(8aS)-10-Acryloyl-6-chloro-8,8a,9,10,11,12-hexahydropyrazino[2′,1′:3,4][1,4]oxazepino[5,6,7-de]quinazolin-5-yl]phenyl}acetamide] | 8.84 µM | 20% |
| C=CC(=O)N1CCN2c3ncnc4cc(-c5cccc6c5OCCOC6)c(Cl)c(c34)OC[C@@H]2C1 [Example 24, 1-[(8aS)-6-Chloro-5-(2,3-dihydro-5H-1,4-benzodioxepin-9-yl)-8a,9,11,12-tetrahydropyrazino[2′,1′:3,4][1,4]oxazepino[5,6,7-de]quinazolin-10(8H)-yl]prop-2-en-1-one] | 4.41 µM | 27% |
| C=CC(=O)N1CCN2c3ncnc4cc(-c5c(F)cccc5OC)c(Cl)c(c34)OC[C@@H]2C1 [Example 25, 1-[(8aS)-6-Chloro-5-(2-fluoro-6-methoxyphenyl)-8a,9,11,12-tetrahydropyrazino[2′,1′:3,4][1,4]oxazepino[5,6,7-de]quinazolin-10(8H)-yl]prop-2-en-1-one] | 0.616 µM | 89% |
| C=CC(=O)N1CCN2c3ncnc4cc(-c5cccc(F)c5OC)c(Cl)c(c34)OC[C@@H]2C1 [Example 26, 1-[(8aS)-6-Chloro-5-(3-fluoro-2-methoxyphenyl)-8a,9,11,12-tetrahydropyrazino[2′,1′:3,4][1,4]oxazepino[5,6,7-de]quinazolin-10(8H)-yl]prop-2-en-1-one] | 2.06 µM | 71% |
| C=CC(=O)N1CCN2c3ncnc4cc(-c5cccc(OC)c5O)c(Cl)c(c34)OC[C@@H]2C1 [Example 27, 1-[(8aS)-6-Chloro-5-(2-hydroxy-3-methoxyphenyl)-8a,9,11,12-tetrahydropyrazino[2′,1′:3,4][1,4]oxazepino[5,6,7-de]quinazolin-10(8H)-yl]prop-2-en-1-one] | 3.03 µM | 73% |
| C=CC(=O)N1CCN2c3ncnc4cc(-c5cccc6c5CCCOC6)c(Cl)c(c34)OC[C@@H]2C1 [Example 28, 1-[(8aS)-6-Chloro-5-(1,3,4,5-tetrahydro-2-benzoxepin-6-yl)-8a,9,11,12-tetrahydropyrazino[2′,1′:3,4][1,4]oxazepino[5,6,7-de]quinazolin-10(8H)-yl]prop-2-en-1-one] | 9.93 µM | 26% |
| C=CC(=O)N1CCN2c3ncnc4cc(-c5ccccc5S(C)(=O)=O)c(Cl)c(c34)OC[C@@H]2C1 [Example 29, 1-[(8aS)-6-Chloro-5-[2-(methylsulfonyl)phenyl]-8a,9,11,12-tetrahydropyrazino[2′,1′:3,4][1,4]oxazepino[5,6,7-de]quinazolin-10(8H)-yl]prop-2-en-1-one] | 5.02 µM | 45% |
| C=CC(=O)N1CCN2c3ncnc4cc(-c5ccccc5C(=O)NC)c(Cl)c(c34)OC[C@@H]2C1 [Example 30, 2-[(8aS)-10-Acryloyl-6-chloro-8,8a,9,10,11,12-hexahydropyrazino[2′,1′:3,4][1,4]oxazepino[5,6,7-de]quinazolin-5-yl]-N-methylbenzamide] | 9.41 µM | 22% |
| C=CC(=O)N1CCN2c3ncnc4cc(-c5cccc(S(N)(=O)=O)c5)c(Cl)c(c34)OC[C@@H]2C1 [Example 31, 3-[(8aS)-10-Acryloyl-6-chloro-8,8a,9,10,11,12-hexahydropyrazino[2′,1′:3,4][1,4]oxazepino[5,6,7-de]quinazolin-5-yl]benzenesulfonamide] | 6.97 µM | 14% |
| C=CC(=O)N1CCN2c3ncnc4cc(-c5cccc6nccnc56)c(Cl)c(c34)OC[C@@H]2C1 [Example 32, 1-[(8aS)-6-Chloro-5-(quinoxalin-5-yl)-8a,9,11,12-tetrahydropyrazino[2′,1′:3,4][1,4]oxazepino[5,6,7-de]quinazolin-10(8H)-yl]prop-2-en-1-one] | 8.32 µM | 33% |
| C=CC(=O)N1CCN2c3ncnc4cc(-c5cccc(NC(=O)OC)c5)c(Cl)c(c34)OC[C@@H]2C1 [Example 33, Methyl {3-[(8aS)-10-Acryloyl-6-chloro-8,8a,9,10,11,12-hexahydropyrazino[2′,1′:3,4][1,4]oxazepino[5,6,7-de]quinazolin-5-yl]phenyl}carbamate] | 6.91 µM | 24% |
| C=CC(=O)N1CCN2c3ncnc4cc(-c5cccc6c5CN(C)CC6)c(Cl)c(c34)OC[C@@H]2C1 [Example 34, 1-[(8aS)-6-Chloro-5-(2-methyl-1,2,3,4-tetrahydroisoquinolin-8-yl)-8a,9,11,12-tetrahydropyrazino[2′,1′:3,4][1,4]oxazepino[5,6,7-de]quinazolin-10(8H)-yl]prop-2-en-1-one] | 3.47 µM | 8% |
| C=CC(=O)N1CCN2c3ncnc4cc(-c5ccccc5OC(F)(F)F)c(Cl)c(c34)OC[C@@H]2C1 [Example 35, 1-[(8aS)-6-Chloro-5-[2-(trifluoromethoxy)phenyl]-8a,9,11,12-tetrahydropyrazino[2′,1′:3,4][1,4]oxazepino[5,6,7-de]quinazolin-10(8H)-yl]prop-2-en-1-one] | 1.48 µM | 87% |
| C=CC(=O)N1CCN2c3ncnc4cc(-c5cccc(N=S(C)(C)=O)c5)c(Cl)c(c34)OC[C@@H]2C1 [Example 36, 1-[(8aS)-6-Chloro-5-(3-{[dimethyl(oxido)-lambda~6~- sulfanylidene]amino}phenyl)-8a,9,11,12-tetrahydropyrazino[2′,1′:3,4][1,4]oxazepino[5,6,7-de]quinazolin-10(8H)-yl]prop-2-en-1-one] | 6.38 µM | 21% |
